Results on one compound are retold here after patent publication US20220073981A1 (KOREA INSTITUTE OF SCIENCE AND TECHNOLOGY, priority 2020, published 2022).

This data set deals with BEAS-2B cell line. Nature of the data set: Cytotoxicity test (MTT assay). Type of data set: cell-based, human. To be noted: 48 hours exposure. Here is the method:
An MTT assay was performed using the BEAS-2B cell line according to the method of Mossman et al. (J. Immunol. Methods, 65, 55-63, 1983).

In the case of `CCC(C)=O` [2-butanone], the “concentration (IC5) showing the 95% survival rate” value stood at 22270 µM and the “concentration showing the 80% survival rate” value worked out at 106210 µM.
